These results are taken from ChEMBL document CHEMBL1131405, “Novel bisphosphonate inhibitors of phosphoglycerate kinase” (Bioorg Med Chem Lett, 1998).

The nature of series [1]: Dissociation constant (pKa4). Type of series: physicochemical. The conditions noted are these: read-out: pKa4.
Series [2] can be described thus: Dissociation constant (pKa3). The class given is physicochemical. The following applies: read-out: pKa3.

Each structure is given as a SMILES string.

With `O=P(O)(O)C(F)c1ccc(C(F)P(=O)(O)O)cc1` (stereo unspecified), the pKa in series [1] was 6.37; in series [2] it was 6.02.
`O=P(O)(O)C(F)(F)c1cccc(C(F)(F)P(=O)(O)O)n1`: the pKa in series [1] was found to be 5.3; in series [2], 5.18.
Consider `O=P(O)(O)Cc1ccc(CP(=O)(O)O)cc1`, for which the results for the pKa in series [1] and in series [2] were 7.49 and 7.03, respectively.
With `O=P(O)(O)Cc1cccc(P(=O)(O)O)c1`, the pKa stood at 7.61 in series [1] and 6.47 in series [2].
For `C=C(CP(=O)(O)O)CP(=O)(O)O`, in that order: 7.45 and 6.45.
For `O=P(O)(O)C(F)c1cccc(C(F)P(=O)(O)O)c1` (stereo unspecified), the pKa in series [1] is 6.37; in series [2], 6.01.
For the compound `O=P(O)(O)Cc1ccc(C(F)(F)P(=O)(O)O)cc1`, the pKa in series [1] came to 6.63; in series [2], 5.27.
As for `O=P(O)(O)Cc1cccc(CP(=O)(O)O)n1`, the pKa in series [1] was determined as 8.49; in series [2] it was 6.7.
With `O=P(O)(O)Cc1cccc(C(F)(F)P(=O)(O)O)c1`, the pKa is 5.84 in series [1] and 5.04 in series [2].
`O=P(O)(O)c1cccc(C(F)(F)P(=O)(O)O)c1`: the pKa in series [1] came out at 6.9; in series [2], 5.61.
In the same order, the values of `O=P(O)(O)C(O)c1cccc(C(O)P(=O)(O)O)c1` (stereo unspecified) are 7.23 and 6.78.
Regarding `O=P(O)(O)c1cccc(C(O)P(=O)(O)O)c1` (stereo unspecified), the pKa is 7.46 in series [1] and 6.55 in series [2].
In the same order, the values of `Cc1cc(C)c(C(F)(F)P(=O)(O)O)cc1C(F)(F)P(=O)(O)O` are 5.92 and 5.33.
As for `O=P(O)(O)C(F)(F)c1ccc(C(F)(F)P(=O)(O)O)cc1`, the pKa stood at 5.6 in series [1] and 4.82 in series [2].
Take `O=P(O)(O)Cc1ccccc1CP(=O)(O)O`: the pKa in series [1] was 8.53; in series [2], 7.1.
For `O=P(O)(O)c1cccc(C(F)P(=O)(O)O)c1` (stereo unspecified), the results for the pKa in series [1] and in series [2] were 6.99 and 5.8, respectively.
Consider `O=P(O)(O)C(F)c1cccc(C(F)P(=O)(O)O)n1` (stereo unspecified), for which the pKa is 5.3 in series [1] and 5.18 in series [2].
Turning to `O=P(O)(O)C(O)c1cccc(C(O)P(=O)(O)O)n1` (stereo unspecified), the pKa was 7.58 in series [1] and 6.57 in series [2].
For `O=P(O)(O)Cc1ccc(C(F)P(=O)(O)O)cc1` (stereo unspecified), the pKa in series [1] is 7.72; in series [2], 6.3.
For `O=P(O)(O)Cc1cccc(C(O)P(=O)(O)O)c1` (stereo unspecified), in that order: 7.29 and 6.98.
As for `Cc1cc(C)c(CP(=O)(O)O)cc1CP(=O)(O)O`, the pKa in series [1] was 7.78; in series [2], 7.24.
`O=P(O)(O)Cc1cccc(CP(=O)(O)O)c1`: the pKa in series [1] is 7.71; in series [2], 7.11.
For `Cc1cc(C)c(CP(=O)(O)O)c(C)c1CP(=O)(O)O`, the pKa in series [1] came out at 8.16; in series [2], 7.4.
